Reference: patent US8299089B2, “Multi-arm polymeric conjugates of 7-ethyl-10-hydroxycamptothecin for treatment of breast, colorectal, pancreatic, ovarian and lung cancers” (priority 2006, dated 2012)

What was measured:
Colo 205 = test: In vitro cytotoxicity, MTS assay, Colo 205; assay type: cell-based
Description: (§1) In Table 2, the cytotoxicity (μM of each compound that results in an IC50) provides an indication of the in vitro anti-tumor potency of each compound. This study was used to determine the effect of PEGylation of four-arm PEGylated 7-ethyl-10-hydroxycamptothecin conjugates. […] Cells were incubated with drugs for 72 hours at 37° C. Following incubation, MTS dye was added and formation of a colored product (formazan) was measured at 490 nm.

HT29 = test: In vitro cytotoxicity, MTS assay, HT29; assay type: cell-based
Description: as §1

A549 = test: In vitro cytotoxicity, MTS assay, A549; assay type: cell-based
Description: as §1

PANC-1 = test: In vitro cytotoxicity, MTS assay, PANC-1; assay type: cell-based
Description: as §1

MIA PaCa-2 = test: In vitro cytotoxicity, MTS assay, MIA PaCa-2; assay type: cell-based
Description: as §1

ASPC-1 = test: In vitro cytotoxicity, MTS assay, ASPC-1; assay type: cell-based
Description: as §1

BxPC-3 = test: In vitro cytotoxicity, MTS assay, BxPC-3; assay type: cell-based
Description: as §1

OVCAR-3 = test: In vitro cytotoxicity, MTS assay, OVCAR-3; assay type: cell-based
Description: as §1

OV90 = test: In vitro cytotoxicity, MTS assay, OV90; assay type: cell-based
Description: as §1

OVCAR-8 = test: In vitro cytotoxicity, MTS assay, OVCAR-8; assay type: cell-based
Description: as §1

A2780 = test: In vitro cytotoxicity, MTS assay, A2780; assay type: cell-based
Description: as §1

SK-0V-3 = test: In vitro cytotoxicity, MTS assay, SK-0V-3; assay type: cell-based
Description: as §1

[1] = Solubility in aqueous saline solution; assay type: physicochemical
[2] = Maximum tolerated dose (MTD) in nude mice; conditions: mouse, in vivo
Description: Mice were monitored for 14 days for mortality and signs of illness and sacrificed when body weight loss was >20% of the pretreatment body weight.

[3] = test system: human mammary carcinoma (MX-1); test: Single dose efficacy in MX-1 breast tumor xenograft mouse model; assay type: in vivo, nude mice; conditions: day 31
Description: Following at least one week of acclimation, tumors were established by implanting small tumor fragments from donor mice into a single subcutaneous site, on the left auxiliary flank region of nude mice. The tumor implantation site was observed twice weekly and measured once palpable. The tumor volume for each mouse was determined by measuring two dimensions with calipers and calculated using the formula: tumor volume=(length×width^2). […] Drugs were administered intravenously via the tail vein as a single dose of 20 mg/kg body weight of a mouse. […] Mouse weight and tumor sizes were measured at the beginning of study and on the 31st day after the single dose administration.
The overall growth of tumors was calculated as the mean tumor volume (TV). A percent treatment over control (T/C) was also calculated. The percentage of tumor regression indicates the in vivo activity of each compound.

[4] = test system: human mammary carcinoma (MX-1); test: Multiple dose efficacy in MX-1 breast tumor xenograft mouse model; assay type: in vivo, nude mice; conditions: i.v. 5 mg/kg/dose (q2d×6), day 31
Description: The mice were dosed 5 mg/kg/day […] (every 2 days [q×2d]×6). Mouse weight and tumor sizes were monitored up to the 31st day after the first dose administration and subsequent administrations.

[5] = test system: human mammary, MX-1 tumors; test: Efficacy in small and large MX-1 breast tumor xenografted mice; assay type: in vivo, nude mice
Description: The antitumor efficacy of 4armPEG-Gly-(7-ethyl-10-hydroxycamptothecin) was evaluated in nude mice bearing small (about 100 mm^3) or large (about 450 mm^3) established human mammary, MX-1 tumors. The antitumor therapeutic activities were determined in mice both with a single dose or multiple dose regimens.
Four of six mice were cured as of day 54. […] All animals were sacrificed by day 20 due to excessive tumor burden.

[6] = test system: MiaPaCa-2 pancreatic tumor cells; test: Efficacy in MiaPaCa-2 pancreatic tumor xenograft mice; assay type: in vivo
[7] = test system: HT-29 colorectal tumor cells; test: Efficacy in HT-29 colorectal tumor xenograft mice; conditions: during the treatment
[8] = Hydrolysis / 7-ethyl-10-hydroxycamptothecin release in human plasma; assay type: in vitro ADME; conditions: for Doubling Time in Plasma, Human: 7-ethyl-10-hydroxycamptothecin formation rate from conjugates; for t1/2 in Human Plasma: PEG conjugate half life
Description: The aqueous stability and hydrolysis properties in rat and human plasma were monitored using UV based HPLC methods.

[9] = 7-ethyl-10-hydroxycamptothecin release in mouse plasma; assay type: in vitro ADME; conditions: 7-ethyl-10-hydroxycamptothecin formation rate from conjugates
[10] = 7-ethyl-10-hydroxycamptothecin release in rat plasma; assay type: in vitro ADME; conditions: 7-ethyl-10-hydroxycamptothecin formation rate from conjugates

## CCc1c2c(nc3ccc(O)cc13)-c1cc3c(c(=O)n1C2)COC(=O)[C@]3(O)CC [7-ethyl-10-hydroxycamptothecin]
Colo 205; Table 2, Colo 205, 72 hours, Compound 9 in 7-ethyl-10-hydroxycamptothecin equivalents, average ± SD (n = 3)
  IC50: 0.2 ± 0.2 µM
Colo 205; Table 3, Colo 205 (colorectal)
  IC50: 0.08 µM
HT29; Table 2, HT29, 72 hours, Compound 9 in 7-ethyl-10-hydroxycamptothecin equivalents, average ± SD (n = 3)
  IC50: 0.1 ± 0.04 µM
HT29; Table 3, HT29 (colorectal)
  IC50: 0.08 µM
A549; Table 2, A549, 72 hours, Compound 9 in 7-ethyl-10-hydroxycamptothecin equivalents, average ± SD (n = 3)
  IC50: 1 ± 0.1 µM
PANC-1; Table 2, PANC-1, 72 hours, Compound 9 in 7-ethyl-10-hydroxycamptothecin equivalents, average ± SD (n = 3)
  IC50: 0.56 ± 0.38 µM
MIA PaCa-2; Table 2, MIA PaCa-2, 72 hours, Compound 9 in 7-ethyl-10-hydroxycamptothecin equivalents, no SD = average of two replicates
  IC50: 0.18 µM
ASPC-1; Table 2, ASPC-1, 72 hours, Compound 9 in 7-ethyl-10-hydroxycamptothecin equivalents, average ± SD (n = 3)
  IC50: 0.64 ± 0.13 µM
BxPC-3; Table 2, BxPC-3, 72 hours, Compound 9 in 7-ethyl-10-hydroxycamptothecin equivalents, average ± SD (n = 3)
  IC50: 0.54 ± 0.58 µM
OVCAR-3; Table 2, OVCAR-3, 72 hours, Compound 9 in 7-ethyl-10-hydroxycamptothecin equivalents, average ± SD (n = 3)
  IC50: 0.1 ± 0.02 µM
OV90; Table 2, OV90, 72 hours, Compound 9 in 7-ethyl-10-hydroxycamptothecin equivalents, average ± SD (n = 3)
  IC50: 0.1 ± 0.02 µM
OVCAR-8; Table 2, OVCAR-8, 72 hours, Compound 9 in 7-ethyl-10-hydroxycamptothecin equivalents, average ± SD (n = 3)
  IC50: 0.03 ± 0.01 µM
A2780; Table 2, A2780, 72 hours, Compound 9 in 7-ethyl-10-hydroxycamptothecin equivalents, average ± SD (n = 3)
  IC50: 0.02 ± 0.01 µM
SK-0V-3; Table 2, SK-0V-3, 72 hours, Compound 9 in 7-ethyl-10-hydroxycamptothecin equivalents, average ± SD (n = 3)
  IC50: 0.2 ± 0.1 µM
[1]
  Solubility in Saline: ^a7-ethyl-10-hydroxycamptothecin is not soluble in saline.

## CCc1c2c(nc3ccc(OC(=O)N4CCC(N5CCCCC5)CC4)cc13)-c1cc3c(c(=O)n1C2)COC(=O)[C@]3(O)CC [CPT-11, Irinotecan, reference compound]
[2]; multiple dose (q2d×5)
  MTD at 14 days: 40 mg/kg
[2]; single dose
  MTD at 14 days: 80 mg/kg
Colo 205; Homo sapiens, COLO 205
  IC50: 20 µM
Colo 205; Homo sapiens, COLO 205, 72 h
  IC50: 11 ± 1.4 µM
HT29; Homo sapiens, HT-29, 72 h
  IC50: 27 ± 8.6 µM
HT29; Homo sapiens, HT-29, Table 3, HT29 (colorectal)
  IC50: 56 µM
A549; Homo sapiens, A549, 72 h
  IC50: 67 ± 17 µM
A549; Homo sapiens, Table 3, A549 (lung)
  IC50: 13 µM
PANC-1; Homo sapiens, PANC-1, 72 h
  IC50: 34 ± 16 µM
MIA PaCa-2; Homo sapiens, MIA PaCa-2, 72 h
  IC50: 67 ± 46 µM
ASPC-1; Homo sapiens, ASPC1, 72 h
  IC50: 33 ± 1 µM
BxPC-3; Homo sapiens, BXPC-3, 72 h
  IC50: 44 ± 44 µM
OVCAR-3; Homo sapiens, OVCAR-3, 72 h
  IC50: 20 ± 7.1 µM
OVCAR-3; Homo sapiens, Table 3, OVCAR-3 (ovarian)
  IC50: 41 µM
OV90; Homo sapiens, OV-90, 72 h
  IC50: 18 ± 4.8 µM
OVCAR-8; Homo sapiens, OVCAR-8, 72 h
  IC50: 9 ± 1.3 µM
A2780; Homo sapiens, A2780, 72 h
  IC50: 8 ± 3.5 µM
SK-0V-3; 72 h
  IC50: 52 ± 8.5 µM
[3]; single dose i.v. 20 mg/kg (conjugate as 7-ethyl-10-hydroxycamptothecin equivalent)
  Mean TV ± SD: 845 ± 50 mm^3
[3]; single dose i.v. 20 mg/kg
  Cures: 0%
  F/I: 843%
  Median TV: 845 mm^3
  Regressions: 0%
  Survival: 0%
  T/C: 108%
  TGI: 26%
[4]
  Chg in TV ± SD: 423 ± 243%
  Cures: 0%
  F/I: 594%
  Mean TV ± SD: 632 ± 698 mm^3
  Median TV: 340 mm^3
  Regressions: 0%
  Survival: 0%
  T/C: 43%
  TGI: 44%
[5]; given at the MTD, for the duration of the treatment
  effect on body weight: did not significantly decrease the body weight
[5]; large tumors, 10 mg/kg q2d×5
  tumor growth inhibition: effective TGI until treatment was discontinued, after which tumors regrew
[5]; large tumors, 40 mg/kg q2d×5, after ~5 weeks
  mice in which tumors regrew: four of the six
[5]; large tumors, multiple doses at MTD 40 mg/kg q2d×5, as of day 13
  TGI: ~95%
[5]; large tumors, single MTD 80 mg/kg, day 13
  TGI: 70%
[5]; small tumors (about 100 mm^3), multiple doses 20 mg/kg q2d×5, as of day 31
  TGI: 44%
[5]; small tumors (about 100 mm^3), single dose 20 mg/kg
  TGI: did not inhibit tumor growth
[6]; multiple doses i.v. (10 mg/kg/dose for five days; CPT-11 also 40 mg/kg/dose)
  TGI: 34%
[6]; single dose i.v. (30 mg/kg; CPT-11 also 80 mg/kg)
  TGI: 0%
[7]
  effect on body weight: did not significantly decrease the body of weight

## ^40K4arm-PEG-Sar-(20)-(7-ethyl-10-hydroxycamptothecin) [Compound 23]
Colo 205; Table 3, Colo 205 (colorectal)
  IC50: 0.04 µM
HT29; Table 3, HT29 (colorectal)
  IC50: 0.27 µM
A549; Table 3, A549 (lung)
  IC50: 11 µM
OVCAR-3; Table 3, OVCAR-3 (ovarian)
  IC50: 0.17 µM
[4]
  Chg in TV ± SD: −87 ± 12%
  Cures: 100%
  F/I: 13%
  Mean TV ± SD: 12 ± 10 mm^3
  Median TV: 14.6 mm^3
  Regressions: 100%
  Survival: 100%
  T/C: 1.9%
  TGI: 99%
[8]
  Doubling Time in Plasma, Human: 28.8 min
  t1/2 in Human Plasma: 19.0 min
[9]
  Doubling Time in Plasma, Mouse: 43.4 min
[10]
  Doubling Time in Plasma, Rat: 481 min

## ^40k4arm-PEG-Ala-(20)-(7-ethyl-10-hydroxycamptothecin) [Compound 12]
Colo 205; Table 3, Colo 205 (colorectal)
  IC50: 0.03 µM
HT29; Table 3, HT29 (colorectal)
  IC50: 0.16 µM
A549; Table 3, A549 (lung)
  IC50: 4.4 µM
OVCAR-3; Table 3, OVCAR-3 (ovarian)
  IC50: 0.14 µM
[4]
  Chg in TV ± SD: −91 ± 11%
  Cures: 67%
  F/I: 10%
  Mean TV ± SD: 10 ± 11 mm^3
  Median TV: 9.6 mm^3
  Regressions: 100%
  Survival: 100%
  T/C: 1.2%
  TGI: 99%
[1]
  Solubility in Saline: 121 mg/mL
[8]
  Doubling Time in Plasma, Human: 51.9 min
  t1/2 in Human Plasma: 12.5 min
[9]
  Doubling Time in Plasma, Mouse: 45.8 min
[10]
  Doubling Time in Plasma, Rat: 753 min

## ^40k4arm-PEG-Met-(20)-(7-ethyl-10-hydroxycamptothecin) [Compound 18]
Colo 205; Table 3, Colo 205 (colorectal)
  IC50: 0.03 µM
HT29; Table 3, HT29 (colorectal)
  IC50: 0.14 µM
A549; Table 3, A549 (lung)
  IC50: 1.6 µM
OVCAR-3; Table 3, OVCAR-3 (ovarian)
  IC50: 0.13 µM
[4]
  Chg in TV ± SD: −94 ± 7%
  Cures: 100%
  F/I: 7.8%
  Mean TV ± SD: 8 ± 9 mm^3
  Median TV: 5.6 mm^3
  Regressions: 100%
  Survival: 100%
  T/C: 0.7%
  TGI: 99%
[1]
  Solubility in Saline: 142 mg/mL
[8]
  Doubling Time in Plasma, Human: 22.2 min
  t1/2 in Human Plasma: 26.8 min
[9]
  Doubling Time in Plasma, Mouse: 41.9 min
[10]
  Doubling Time in Plasma, Rat: 1920 min
